Peptide text beside a SMILES is read from it.
What was measured:
[1] = system: S. enterica; assay: Bacterial growth in conditioned medium; assay type: cell-based, Salmonella enterica
[2] = system: S. typhimurium; assay: Intracellular infection assay; assay type: cell-based, S. typhimurium SL1344 in A549 cells; settings: A549 cells expressing dTAG–PPP1CB pre-incubated 1 h with dTAG^V-1
[3] = system: M. luteus; assay: Intracellular infection assay; assay type: cell-based, M. luteus in A549 cells; settings: A549 cells expressing dTAG–PPP1CB pre-incubated 1 h with dTAG^V-1
[4] = system: CaCo-2 monolayer; assay: TEER assay, CaCo-2 monolayer cocultured with P. aeruginosa; assay type: cell-based, human; settings: P. aeruginosa coculture, 6 h, n = 3

CC[C@H](C(=O)N1CCCC[C@H]1C(=O)O[C@H](CCc1ccc(OC)c(OC)c1)c1ccccc1OCC(=O)NCCCCCCC(=O)N[C@H](C(=O)N1C[C@H](O)C[C@H]1C(=O)N[C@@H](C)c1ccc(-c2scnc2C)cc1)C(C)(C)C)c1cc(OC)c(OC)c(OC)c1 [dTAG^V-1]
reduction of bacterial growth in conditioned medium ([1]; A549 cells expressing dTAG–PPP1CB, 500 nM dTAG^V-1 for 6 h vs DMSO): 20%
intracellular bacterial infection (CFU counts, imaging) [2]: attenuated intracellular bacterial infection significantly
intracellular bacterial infection (CFU counts) [3]: attenuated intracellular bacterial infection significantly

CC[C@H](C)[C@H](NC(=O)[C@H](CC(N)=O)NC(=O)[C@H](Cc1ccccc1)NC(=O)[C@H](CCCNC(=N)N)NC(=O)[C@H](CCCNC(=N)N)NC(=O)[C@@H](N)CCCCN)C(=O)N[C@@H](CCCCN)C(=O)N[C@@H](CC(C)C)C(=O)N[C@@H](Cc1c[nH]c2ccccc12)C(=O)N[C@@H](CCCCN)C(=O)N[C@H](C(=O)N[C@@H](Cc1ccccc1)C(=O)O)[C@@H](C)O [PPP1CB] (H-KRRFNIKLWKTF-OH)
disruption of CaCo-2 barrier integrity by P. aeruginosa (TEER barrier index) [4]: fully abolished

CC(=O)N[C@@H](CC(C)C)C(=O)N[C@@H](CC(C)C)C(=O)N[C@H](C=O)CCCNC(=N)N [leupeptin]
bacterial growth in conditioned medium ([1]; medium from cells treated with leupeptin 20 µM for 6 h): increase in bacterial growth

From PMC11946893 (Nature, 2025)
